# Source: patent US12534439B2, “Xanthohumol derivatives and methods for making and using” (Oregon State University, priority 2021, dated 2026)
# Where two headings read alike, the source gives them in different places.
# What was measured:
# [1] = system: HepG2 cells; details: cited from earlier work
# [2] = Quantification of XP and XN in plasma and cortex by UPLC-MS with or without glucuronidase digestion; format: in vivo, mice; details: for concentration at 11 weeks: C57BL/6J, mouse, without glucuronidase digestion, daily oral XP 30, XN 60 mg/kg body weight, mean ± SEM
# Method: Quantification of XP and XN. For plasma extractions, ascorbic acid (5 μL, 10% m/m water, Sigma-Aldrich, St Louis, MO, USA) was added to 40 μL of plasma. For tissue extractions, 20 mg of cortex was extracted with 200 μL of 50% methanol in water and 10 μL of ascorbic acid (10% m/m water). Samples were incubated with or without 10 μL of glucuronidase (20 mg/mL, Sigma-Aldrich, St Louis, MO, USA) for 3 hours at 37° C. The samples were extracted with 200 μL of acetonitrile containing 100 ng/mL of [13C3]-XN. The supernatant was transferred to a new tube and vacuum-dried, and the pellet was reconstituted in 100 μL of 50% methanol in water. UPLC-MS was performed using a hybrid triple quadrupole linear ion trap mass spectrometer (4000 QTRAP, AB SCIEX, Toronto, Canada). The elution profile was set as follows: 5% B from 0 to 0.5 min, 5 to 100% B from 0.5 to 3 minutes, 1 minute hold at 100% B, followed by re-equilibration of the HPLC column at 5% B for 2 minutes. Selected reaction monitoring transitions used for quantification were m/z 353.1>119.1 for XN, m/z 379.3>321.3 for XP, and m/z 356.1>120.1 for the [13C3]-XN internal standard.
# For plasma extractions, ascorbic acid (5 μL, 10% m/m water, Sigma Aldrich, St Louis, MO, USA) was added to 40 μL of plasma. Samples were incubated with or without 10 μL glucuronidase (20 mg/mL, Sigma Aldrich, St Louis, MO, USA) for 3 hr at 37° C. Samples were extracted with 200 μL of acetonitrile containing 100 ng/mL [^13C3]—XN^1. The supernatant was transferred to a new tube, vacuum-dried and the pellet was reconstituted in 100 μL of 50% methanol in water. UPLC-MS was performed using a hybrid triple quadrupole linear ion trap mass spectrometer (4000 QTRAP, AB SCIEX, Toronto, Canada) as previously reported with some modifications. The elution profile was set as follows: 5% solvent B from 0 to 0.5 minute, 5% to 100% B from 0.5-3 minutes, 1 minute hold at 100% B followed by re-equilibration of the HPLC column at 5% B for 2 minutes. Selected Reaction Monitoring transitions used for quantification were m/z 353.1>119.1 for XN, m/z 379.3>321.3 for XP and m/z 356.1>120.1 for [^13C3]—XN internal standard. XP and XN concentrations were calculated by the external calibration method using calibration curves constructed from pure XP and XN standards.
# [3] = general statement on XN; cited from earlier work
# [4] = system: UCP1; test: Western blotting of UCP1 in skeletal muscle, BAT and WAT; format: in vivo; details: HFD-fed mice, versus control
# Method: Western Blotting. Approximately 100 mg of frozen BAT and WAT was homogenized in RIPA buffer with protease and phosphatase inhibitors (Santa Cruz Biotechnology, Dallas, TX, USA). Tissues were sonicated for 30 seconds, and the homogenates were centrifuged at 15700 g for 10 minutes to collect the supernatants. Protein (30 μg) was separated by SDS-PAGE using 4-15% MP TGX Gels (Bio-Rad, Hercules, CA, USA) and blotted onto nitrocellulose membranes. The membranes were blocked with 5% nonfat milk for 90 minutes and incubated with antibodies against GAPDH (#0411, Santa Cruz Biotechnology, Dallas, TX, USA) or UCP1 (#10983, Genetex, Irvine, CA, USA) for 60 minutes. After a second reaction with secondary antibodies (horseradish peroxidase-conjugated IgG antibodies), the protein bands on the nitrocellulose membranes were visualized by enhanced chemiluminescence substrate on an electrochemical luminescence (ECL) imager (Thermo Fisher Scientific, Waltham, MA, USA). Band intensities were quantified by densitometry using Image J software.
# [5] = system: HepG2 cells; test: MTT cell viability assay in HepG2 cells; format: cell-based, human; details: 24 hours
# Method: To assess the toxicity of 4-(5-(4-hydroxyphenyl)-1-methyl-1h-pyrazol-3-yl)-5-methoxy-2-(3-methylbut-2-en-1-yl)benzene-1,3-diol (XP), in vitro cell viability assays were performed on several cell lines. HepG2, 3T3L1 and C2Cl2 cells were exposed to XP and cell viability was assessed using an MTT assay. At concentrations lower than 50 μM, XP had no effect on the viability of the human liver cancer cell lines HepG2 and murine myoblast cell lines C2Cl2 with respect to the control treatment (FIGS. 11A-11B). […] This establishes that XP is safe to use in vivo at dosages similar to xanthohumol.
# Cell Viability Assays. Cells were seeded in 96-well plates 24 hours prior to adding the compound. HepG2 cells were seeded at a density of 5×10^4 cells/mL and C2Cl2 at 1×10^4 cells/mL in order to reach 80% confluency at the beginning of the experiment. After 24 hours, the culture medium was replaced with fresh medium containing various concentrations ranging between 0 and 200 μM of XP. The cells were incubated in the presence of the compound for 24 hours, at which time, the MTT viability assay was carried as previously described. MTT was dissolved at 0.5 mg/mL in serum-free Dulbecco's modified Eagle's medium, filter-sterilized and 100 μL was added to the cells. The cells were incubated for 3 hours and then acidified with 100% isopropanol for 15 minutes before absorbance reading at 570 nm on a BioTek Synergy HT plate reader.
# [6] = cortex, read-out: CORTEX concentration, Non-glucuronidated
# [7] = plasma, read-out: PLASMA concentration, Non-glucuronidated
Compound,Cytotoxic concentration [1],"concentration at 11 weeks [2, 6] [ng/g]","concentration at 11 weeks [2, 7] [ng/mL]",Metabolism [3],UCP1 protein expression in WAT [4],UCP1 protein expression in skeletal muscle and BAT [4],Phase 1 metabolism ([2]; plasma of treated mice),"Metabolites detected in plasma ([2]; plasma of treated mice, mass spectrometric analysis)","UCP1 protein expression in skeletal muscle, BAT, or WAT [4]",Concentration without effect on cell viability [5],Concentration without effect on cell viability ([5]; listed as 4-(5-(4-hydroxyphenyl)-1-methyl-1H-pyrazol-3-yl)-5-methoxy-2-(3-methylbut-2-en-1)),Concentration without effect on cell viability ([5]; listed as 4-(5-(4-hydroxyphenyl)-1-methyl-1h-pyrazol-3-yl)-5-methoxy-2-(3-methylbut-2-en-1)) [nM]
"COc1cc(O)c(CC=C(C)C)c(O)c1C(=O)/C=C/c1ccc(O)cc1 [XN, xanthohumol]",above 25 μM,59.7 ± 16.8,13.2 ± 3.07,subject to extensive phase 1 and phase 2 metabolism,decreased,no significant changes,,,,,,
"COc1cc(O)c(CC=C(C)C)c(O)c1-c1cc(-c2ccc(O)cc2)n(C)n1 [XP, 4-(5-(4-hydroxyphenyl)-1-methyl-1H-pyrazol-3-yl)-5-methoxy-2-(3-methylbut-2-en-1-yl)benzene-1,3-diol]",,40.1 ± 2.8,43.5 ± 3.54,,,,resistant to phase 1 metabolism,XP-glucuronide was the only metabolite,no effect,lower than 50 μM,up to 25 μM,1000 to 50000
